From publication PMC7672476, “Structural basis of Mfd-dependent transcription termination” (Nucleic Acids Research, 2020)

Biological target: T1, T. thermophilus Mfd (Thermus thermophilus, UniProt Q72KB4)
T1 construct: full-length, N-terminal hexahistidine tag, plasmid pET28a-NH-TthMfd, expressed in E. coli BL21(DE3)
T1 sequence (Q72KB4 1-978): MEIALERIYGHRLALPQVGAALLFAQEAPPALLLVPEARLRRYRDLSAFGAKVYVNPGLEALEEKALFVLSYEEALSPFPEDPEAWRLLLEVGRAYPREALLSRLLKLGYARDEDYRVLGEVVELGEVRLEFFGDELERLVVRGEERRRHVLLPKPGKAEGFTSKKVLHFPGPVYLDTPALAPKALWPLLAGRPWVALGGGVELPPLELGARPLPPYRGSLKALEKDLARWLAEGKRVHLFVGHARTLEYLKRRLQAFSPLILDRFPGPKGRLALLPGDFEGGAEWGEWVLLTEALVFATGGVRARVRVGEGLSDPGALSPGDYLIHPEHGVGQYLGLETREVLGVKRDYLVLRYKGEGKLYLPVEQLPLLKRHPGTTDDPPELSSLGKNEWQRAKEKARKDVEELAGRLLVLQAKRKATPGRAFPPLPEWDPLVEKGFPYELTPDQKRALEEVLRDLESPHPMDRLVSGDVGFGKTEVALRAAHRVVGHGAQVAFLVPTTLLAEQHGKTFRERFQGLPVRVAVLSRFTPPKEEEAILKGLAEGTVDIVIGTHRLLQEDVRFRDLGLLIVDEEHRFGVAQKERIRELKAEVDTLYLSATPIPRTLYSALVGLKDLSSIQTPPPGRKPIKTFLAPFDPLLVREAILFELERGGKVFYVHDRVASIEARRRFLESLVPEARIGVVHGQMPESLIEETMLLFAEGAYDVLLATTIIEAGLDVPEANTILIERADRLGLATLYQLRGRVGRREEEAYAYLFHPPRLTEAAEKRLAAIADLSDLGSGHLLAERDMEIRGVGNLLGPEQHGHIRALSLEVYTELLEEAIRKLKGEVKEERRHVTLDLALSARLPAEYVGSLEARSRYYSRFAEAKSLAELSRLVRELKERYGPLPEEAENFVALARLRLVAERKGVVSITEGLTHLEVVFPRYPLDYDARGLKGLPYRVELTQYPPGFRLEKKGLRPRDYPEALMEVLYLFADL
Test: colorimetric phosphate release ATPase assay
Assay type: biochemical
Settings: 10 mM MgCl2, 0.1 M KCl, pH 7.9, 37°C; 0.4-2 mM ATP

Nc1ncnc2c1ncn2[C@@H]1O[C@H](COP(=O)(O)OP(=O)(O)OP(=O)(O)O)[C@@H](O)[C@H]1O [ATP]
colorimetric phosphate release ATPase assay: ATPase activity assay verified that T. thermophilus Mfd hydrolyzed ATP
